Values of other authors in patent US20170304500A1, “MICROFABRICATED TISSUE SCAFFOLDS AND METHODS OF MAKING AND USING THE SAME” (TARA BIOSYSTEMS INC., priority 2014, published 2017).

Test system: artery and vein
Conditions: released from hydrogel; reported in PNAS; cited from earlier work

Question: For “thymosin Beta-4: peptide controllably released from a hydrogel (SDKPDMAEIEKFDKSKLKKTETQEKNPLPSKETIEQEKQAGES; Thymosin beta-4 released from hydrogel; UniProt P62328 2-44, looked up)”, which angiogenesis is on record?
Answer: Its angiogenesis is “stimulated angiogenesis”.
